Measurements from US10597388B2, “Pyridazinone herbicides” (FMC CORPORATION, priority 2014, dated 2020).

What was measured:
Assay type in all cases: in vivo
[1] = tested on: barley, winter (winter barley, Hordeum vulgare); assay: Test D controlled growth environment herbicide test, pre- and postemergence
Summary of the method: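 Rating is visual, 0–100 scale (100 = complete control), made against untreated plants 14–21 d after treatment in controlled growth conditions. Postemergence sprays went onto 1- to 4-leaf plants in peat medium; preemergence sprays onto silt loam after sowing; formulation included a surfactant.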

[2] = tested on: arrowleaf sida (Sida rhombifolia); assay: Test E greenhouse herbicide test, pre- and postemergence
Summary of the method: (§1)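 Herbicidal effect was judged by eye relative to untreated plants 14 to 21 d after spraying, using 0 for no effect and 100 for complete control. Preemergence sprays went onto freshly seeded silt loam; postemergence sprays onto 2–18 cm seedlings.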

[3] = tested on: dayflower (Virginia (VA) dayflower, Commelina virginica); assay: as above
Summary of the method: as §1

[4] = tested on: johnsongrass (Sorghum halepense); assay: as above; conditions: Preemergence
Summary of the method: as §1

[5] = tested on: lambsquarters (Chenopodium album); assay: as above; conditions: Preemergence
Summary of the method: as §1

[6] = tested on: nightshade (eastern black nightshade, Solanum ptycanthum); assay: as above; conditions: Preemergence
Summary of the method: as §1

[7] = tested on: sandbur (southem sandbur, Cenchrus echinatus); assay: as above
Summary of the method: as §1

soybean (Glycine max) = assay: as above
Summary of the method: as §1

[8] = tested on: surinam grass (Brachiaria decumbens); assay: as above; conditions: Preemergence
Summary of the method: as §1

[9] = tested on: waterhemp_RES1 (ALS & Triazine resistant common waterhemp, Amaranthus rudis); assay: Test E greenhouse herbicide test, postemergence
Summary of the method: (§2)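 Formulated compounds are applied postemergence to potted waterhemp at 1–4 leaves (2–18 cm high). Plants stay in the greenhouse for 14 to 21 d before visual comparison with controls, and control is scored from 0 (none) to 100 (complete).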

[10] = tested on: waterhemp_RES2 (ALS & HPPD resistant common waterhemp, Amaranthus rudis); assay: Test E greenhouse herbicide test, postemergence
Summary of the method: as §2

[11] = Postemergence, 31 g ai/ha, scale 0 to 100 (0 no effect, 100 complete control)
[12] = Postemergence, 125 g ai/ha, visual rating on scale 0 (no effect) to 100 (complete control), 14 to 21 d
[13] = Postemergence, 250 g ai/ha, scale 0 to 100 (0 no effect, 100 complete control)
[14] = Preemergence, 62 g ai/ha, scale 0 to 100 (0 no effect, 100 complete control)
[15] = Preemergence, 125 g ai/ha, scale 0 to 100 (0 no effect, 100 complete control)
[16] = Preemergence, 250 g ai/ha, scale 0 to 100 (0 no effect, 100 complete control)
[17] = postemergence, 62 g ai/ha, scale 0 to 100, 0 no effect, 100 complete control
[18] = 62 g ai/ha, Preemergence, scale 0 to 100 (0 no effect, 100 complete control)
[19] = 125 g ai/ha, Postemergence, scale 0 to 100 (0 no effect, 100 complete control)
[20] = 250 g ai/ha, Postemergence, scale 0 to 100 (0 no effect, 100 complete control)
[21] = Preemergence, 125 g ai/ha, visual, scale 0 no effect to 100 complete control
[22] = Preemergence, 250 g ai/ha, visual, scale 0 no effect to 100 complete control
[23] = Preemergence, 31 g ai/ha, scale 0 to 100, 0 no effect, 100 complete control
[24] = 62 g ai/ha, scale 0 to 100 (0 no effect, 100 complete control)
[25] = 31 g ai/ha, scale 0 to 100, 0 no effect, 100 complete control
[26] = 125 g ai/ha, visual, scale 0 no effect to 100 complete control
[27] = 250 g ai/ha, visual, scale 0 no effect to 100 complete control
[28] = 125 g ai/ha, scale 0 to 100 (0 no effect, 100 complete control)
[29] = 125 g ai/ha, Preemergence, scale 0 to 100 (0 no effect, 100 complete control)
[30] = 250 g ai/ha, scale 0 to 100 (0 no effect, 100 complete control)
[31] = 62 g ai/ha, Postemergence, scale 0 to 100 (0 no effect, 100 complete control)
[32] = Postemergence, 31 g ai/ha, visual, scale 0 no effect to 100 complete control
[33] = 31 g ai/ha, visual, scale 0 no effect to 100 complete control

CCC(=O)Oc1c(C)nn(C)c(=O)c1-c1c(C)sc2c(C)cc(C)cc12 [Compound 28]
5: Plant response rating, Barley, Winter [1, 12] | Plant response rating, Barley, Winter [1, 13] | Plant response rating, Dayflower, VA [3, 23]
85: Plant response rating, Sandbur [7, 22] | Plant response rating, Surinam Grass [8, 25]
15: Plant response rating, Barley, Winter [1, 15] | Barley, Winter plant response rating [1, 16] | Plant response rating, Sandbur [7, 23]
65: Plant response rating, Dayflower, VA [3, 21] | Plant response rating, Sandbur [7, 18]
100: Plant response rating, Lambsquarters [5, 24] | Plant response rating, Lambsquarters [5, 25] | Plant response rating, Lambsquarters [5, 26] | Plant response rating, Nightshade [6, 27] | Plant response rating, Surinam Grass [8, 28]
0: Plant response rating, Barley, Winter [1, 11] | Plant response rating (scale of 0 to 100), Barley, Winter ([1]; Preemergence, 31 g ai/ha) | Plant response rating, Barley, Winter [1, 14] | Plant response rating, Barley, Winter [1, 17] | Plant response rating, Arrowleaf Sida [2, 18] | Plant response rating, Soybean (soybean (Glycine max); [18]) | Plant response rating, Soybean (soybean (Glycine max); [29]) | Plant response rating, Soybean (soybean (Glycine max); [23]) | Plant response rating, Soybean (soybean (Glycine max); [22])
10: Plant response rating, Dayflower, VA [3, 18]
60: Plant response rating, Arrowleaf Sida [2, 19] | Plant response rating, Arrowleaf Sida [2, 20] | Plant response rating, Sandbur [7, 19] | Plant response rating, Soybean (soybean (Glycine max); [20]) | Plant response rating, Waterhemp_RES1 [9, 28]
98: Plant response rating, Lambsquarters [5, 27] | Plant response rating, Nightshade [6, 24] | Plant response rating, Nightshade [6, 28] | Plant response rating, Surinam Grass [8, 24] | Plant response rating, Surinam Grass [8, 27]
70: Plant response rating, Arrowleaf Sida [2, 22] | Plant response rating, Dayflower, VA [3, 19] | Plant response rating, Dayflower, VA [3, 22] | Plant response rating, Johnsongrass [4, 25]
90: Plant response rating, Johnsongrass [4, 27]
80: Plant response rating, Dayflower, VA [3, 20] | Plant response rating, Johnsongrass [4, 24] | Plant response rating, Johnsongrass [4, 26] | Plant response rating, Nightshade [6, 25] | Plant response rating, Sandbur [7, 29] | Plant response rating, Sandbur [7, 20] | Plant response rating, Waterhemp_RES1 [9, 30]
50: Plant response rating, Arrowleaf Sida [2, 21] | Plant response rating, Soybean (soybean (Glycine max); [19]) | Plant response rating, Waterhemp_RES2 [10, 28] | Plant response rating, Waterhemp_RES2 [10, 30]

COC(=O)Oc1c(C)nn(C)c(=O)c1-c1c(C)sc2c(C)cc(C)cc12 [Compound 81]
100: Plant response rating, Johnsongrass [4, 27] | Plant response rating, Lambsquarters [5, 24] | Plant response rating, Lambsquarters [5, 28] | Plant response rating, Lambsquarters [5, 27] | Plant response rating, Nightshade [6, 28]
95: Plant response rating, Surinam Grass [8, 28] | Plant response rating, Surinam Grass [8, 27]
80: Plant response rating, Dayflower, VA [3, 19] | Plant response rating, Dayflower, VA [3, 20] | Plant response rating, Nightshade [6, 25]
0: Barley, Winter plant response rating [1, 11] | Plant response rating, Barley, Winter [1, 12] | Plant response rating (scale of 0 to 100), Barley, Winter ([1]; Preemergence, 31 g ai/ha) | Plant response rating, Barley, Winter [1, 14] | Plant response rating, Barley, Winter [1, 17] | Plant response rating, Soybean (soybean (Glycine max); [18]) | Plant response rating, Soybean (soybean (Glycine max); [19]) | Plant response rating, Soybean (soybean (Glycine max); [29]) | Plant response rating, Soybean (soybean (Glycine max); [32]) | Plant response rating, Soybean (soybean (Glycine max); [23]) | Plant response rating, Soybean (soybean (Glycine max); [22])
90: Plant response rating, Johnsongrass [4, 24] | Plant response rating, Nightshade [6, 24] | Plant response rating, Sandbur [7, 22] | Plant response rating, Surinam Grass [8, 24]
65: Plant response rating, Dayflower, VA [3, 22] | Plant response rating, Johnsongrass [4, 28] | Plant response rating, Waterhemp_RES1 [9, 30]
15: Plant response rating, Dayflower, VA [3, 18]
75: Plant response rating, Sandbur [7, 20]
10: Plant response rating, Barley, Winter [1, 13] | Plant response rating, Dayflower, VA [3, 23] | Plant response rating, Sandbur [7, 23] | Plant response rating, Soybean (soybean (Glycine max); [20]) | Plant response rating, Waterhemp_RES2 [10, 33]
70: Plant response rating, Arrowleaf Sida [2, 29] | Plant response rating, Arrowleaf Sida [2, 22] | Plant response rating, Dayflower, VA [3, 31] | Plant response rating, Johnsongrass [4, 25] | Plant response rating, Sandbur [7, 19] | Plant response rating, Sandbur [7, 29] | Plant response rating, Surinam Grass [8, 25]
45: Plant response rating, Barley, Winter [1, 15] | Plant response rating, Barley, Winter [1, 16]
98: Plant response rating, Lambsquarters [5, 25] | Plant response rating, Nightshade [6, 27]
30: Plant response rating, Arrowleaf Sida [2, 19]
40: Plant response rating, Arrowleaf Sida [2, 31] | Plant response rating, Arrowleaf Sida [2, 32] | Plant response rating, Arrowleaf Sida [2, 23] | Plant response rating, Sandbur [7, 18]
60: Plant response rating, Arrowleaf Sida [2, 18] | Plant response rating, Arrowleaf Sida [2, 20] | Plant response rating, Dayflower, VA [3, 32] | Plant response rating, Sandbur [7, 32] | Plant response rating, Waterhemp_RES1 [9, 28]
50: Plant response rating, Waterhemp_RES1 [9, 33] | Plant response rating, Waterhemp_RES2 [10, 28] | Plant response rating, Waterhemp_RES2 [10, 30]
35: Plant response rating, Dayflower, VA [3, 29]

CCOC(=O)Oc1c(C)nn(C)c(=O)c1-c1c(C)sc2ccc(C)cc12 [Compound 82]
90: Plant response rating, Arrowleaf Sida [2, 20] | Plant response rating, Nightshade [6, 25] | Plant response rating, Surinam Grass [8, 27]
5: Plant response rating, Barley, Winter [1, 15] | Plant response rating, Dayflower, VA [3, 18] | Plant response rating, Dayflower, VA [3, 29]
80: Plant response rating, Arrowleaf Sida [2, 19]
20: Plant response rating, Arrowleaf Sida [2, 23]
25: Plant response rating, Barley, Winter [1, 16]
95: Plant response rating, Arrowleaf Sida [2, 22] | Plant response rating, Waterhemp_RES1 [9, 30]
50: Plant response rating, Dayflower, VA [3, 31] | Plant response rating, Johnsongrass [4, 27] | Plant response rating, Sandbur [7, 32] | Plant response rating, Waterhemp_RES2 [10, 33]
70: Plant response rating, Arrowleaf Sida [2, 31] | Plant response rating, Arrowleaf Sida [2, 18] | Plant response rating, Sandbur [7, 19]
65: Plant response rating, Arrowleaf Sida [2, 32] | Plant response rating, Dayflower, VA [3, 20] | Plant response rating, Surinam Grass [8, 24]
0: Barley, Winter plant response rating [1, 11] | Plant response rating, Barley, Winter [1, 12] | Plant response rating, Barley, Winter [1, 13] | Plant response rating (scale of 0 to 100), Barley, Winter ([1]; Preemergence, 31 g ai/ha) | Plant response rating, Barley, Winter [1, 14] | Plant response rating, Barley, Winter [1, 17] | Plant response rating, Dayflower, VA [3, 23] | Plant response rating, Johnsongrass [4, 25] | Plant response rating, Sandbur [7, 23] | Plant response rating, Soybean (soybean (Glycine max); [18]) | Plant response rating, Soybean (soybean (Glycine max); [29]) | Plant response rating, Soybean (soybean (Glycine max); [23])
98: Plant response rating, Lambsquarters [5, 25] | Plant response rating, Nightshade [6, 24] | Plant response rating, Nightshade [6, 28]
35: Plant response rating, Dayflower, VA [3, 22] | Plant response rating, Johnsongrass [4, 28] | Plant response rating, Sandbur [7, 18] | Plant response rating, Soybean (soybean (Glycine max); [20]) | Plant response rating, Surinam Grass [8, 25]
40: Plant response rating, Dayflower, VA [3, 32] | Plant response rating, Soybean (soybean (Glycine max); [19])
10: Plant response rating, Soybean (soybean (Glycine max); [32])
75: Plant response rating, Lambsquarters [5, 24] | Plant response rating, Sandbur [7, 20] | Plant response rating, Sandbur [7, 22]
85: Plant response rating, Arrowleaf Sida [2, 29] | Plant response rating, Surinam Grass [8, 28] | Plant response rating, Waterhemp_RES1 [9, 28]
60: Plant response rating, Dayflower, VA [3, 19] | Plant response rating, Sandbur [7, 29] | Plant response rating, Waterhemp_RES1 [9, 33] | Plant response rating, Waterhemp_RES2 [10, 28] | Plant response rating, Waterhemp_RES2 [10, 30]
100: Plant response rating, Lambsquarters [5, 28] | Plant response rating, Lambsquarters [5, 27] | Plant response rating, Nightshade [6, 27]
